Test results as given in ChEMBL document CHEMBL1148514, “Development of lipopeptides for inhibiting 20S proteasomes” (Bioorg Med Chem Lett, 2006).
Residues, ends and D or L forms follow the SMILES beside them.

Assays:
[1] = target: T1, Proteasome Macropain subunit (Saccharomyces cerevisiae S288c) (UniProt P22141); test: Inhibition of trypsin like activity of yeast 20S proteasome at 625 uM
T1 sequence (whole entry): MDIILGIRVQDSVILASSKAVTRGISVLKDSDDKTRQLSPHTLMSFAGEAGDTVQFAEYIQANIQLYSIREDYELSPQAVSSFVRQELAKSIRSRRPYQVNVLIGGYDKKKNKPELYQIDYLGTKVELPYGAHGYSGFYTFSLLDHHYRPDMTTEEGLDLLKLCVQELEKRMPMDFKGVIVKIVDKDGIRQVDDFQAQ

[2] = target: T2, Proteasome component C5 (Saccharomyces cerevisiae S288c) (UniProt P23724); test: (§1) Inhibition of post acid activity of yeast 20S proteasome at 625 uM
T2 sequence (whole entry): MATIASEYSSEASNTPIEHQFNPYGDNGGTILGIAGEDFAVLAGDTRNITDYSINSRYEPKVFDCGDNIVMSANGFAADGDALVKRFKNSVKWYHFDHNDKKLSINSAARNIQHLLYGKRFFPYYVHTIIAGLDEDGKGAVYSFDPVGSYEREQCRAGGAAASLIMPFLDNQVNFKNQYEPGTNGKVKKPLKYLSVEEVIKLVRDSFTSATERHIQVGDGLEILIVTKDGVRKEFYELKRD

[3] = target: T3, Proteasome Macropain subunit PRE2 (Saccharomyces cerevisiae S288c) (UniProt P30656); test: Inhibition of chymotrypsin like activity of yeast 20S proteasome at 625 uM
T3 sequence (whole entry): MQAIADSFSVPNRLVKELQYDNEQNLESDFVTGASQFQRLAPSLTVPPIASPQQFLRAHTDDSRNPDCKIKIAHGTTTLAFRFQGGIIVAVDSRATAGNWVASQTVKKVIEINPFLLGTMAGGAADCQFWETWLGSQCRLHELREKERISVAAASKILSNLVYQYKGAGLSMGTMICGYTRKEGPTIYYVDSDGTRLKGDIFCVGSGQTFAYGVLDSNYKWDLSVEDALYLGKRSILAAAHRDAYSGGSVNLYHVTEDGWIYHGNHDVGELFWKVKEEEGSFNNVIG

[4] = target: T4, Proteasome Macropain subunit PRE2 (Saccharomyces cerevisiae S288c, UniProt P30656); test: Inhibition of chymotrypsin like activity of yeast 20S proteasome
T4 sequence (P30656 whole entry): T3 sequence (whole entry)

Proteasome component C5 [5] = target: T5, Proteasome component C5 (Saccharomyces cerevisiae S288c, UniProt P23724); test: Inhibition of post acid activity of yeast 20S proteasome
T5 sequence (P23724 whole entry): T2 sequence (whole entry)

[6] = target: T1, Proteasome Macropain subunit (Saccharomyces cerevisiae S288c); test: Activation of trypsin like activity of yeast 20S proteasome
[7] = target: T2, Proteasome component C5 (Saccharomyces cerevisiae S288c); test: Inhibition of post acid activity of yeast 20S proteasome at 80 uM
[8] = target: T3, Proteasome Macropain subunit PRE2 (Saccharomyces cerevisiae S288c); test: Activation of chymotrypsin like activity of yeast 20S proteasome
Proteasome component C5 [9] = target: T5, Proteasome component C5; test: as §1
[10] = target: T2, Proteasome component C5 (Saccharomyces cerevisiae S288c); test: Activation of post acid activity of yeast 20S proteasome
[11] = target: T6, Proteasome Macropain subunit (Saccharomyces cerevisiae S288c, UniProt P22141); test: Inhibition of trypsin like activity of yeast 20S proteasome
T6 sequence (P22141 whole entry): T1 sequence (whole entry)

[12] = target: T3, Proteasome Macropain subunit PRE2 (Saccharomyces cerevisiae S288c); test: Inhibition of chymotrypsin like activity of yeast 20S proteasome at 80 uM

| inhibition [1] | inhibition [2] | inhibition [3] | Activity [6] | Activity [10] | Compound | Ki [4] | also measured |
| --- | --- | --- | --- | --- | --- | --- | --- |
| < 10% | < 10% | < 10% |  |  | H-TITYEY-OH |  |  |
| < 10% |  | < 10% |  |  | H-TITYDF-OH |  | Ki (Proteasome component C5 [5]): > 625 µM |
| < 10% | < 10% | < 10% |  |  | H-TVTYDY-OH |  |  |
|  |  |  | 1.6 | 1.3 | CCCCCCCCCCCCCCCCCC(=O)N[C@H](C(=O)N[C@H](C(=O)N[C@H](C(=O)N[C@@H](Cc1ccccc1)C(=O)N[C@@H](CC(=O)O)C(=O)N[C@@H](Cc1ccc(O)cc1)C(=O)O)[C@@H](C)O)[C@@H](C)CC)[C@@H](C)O (HELM PEPTIDE1{[CCCCCCCCCCCCCCCCCC(=O)[*:2]].T.I.T.F.D.Y}$$$$V2.0) | 39 µM |  |

Further lines, the compound ahead of its results:

| Compound | inhibition [1] | inhibition [2] | inhibition [3] | Activity [6] | Activity [10] | Ki [4] | also measured |
| --- | --- | --- | --- | --- | --- | --- | --- |
| H-TVTYKL-OH | < 10% | < 10% |  |  |  | 545 µM |  |
| CCCCCCCC(=O)N[C@@H](Cc1ccc(O)cc1)C(=O)N[C@@H](CCC(=O)O)C(=O)N[C@@H](CC(C)C)C(=O)O (HELM PEPTIDE1{[CCCCCCCC(=O)[*:2]].Y.E.L}$$$$V2.0) |  |  |  | 1.9 |  | > 80 µM | inhibition [7]: < 10% |
| CCCCCCCCCCCCCCCC(=O)N[C@H](C(=O)N[C@H](C(=O)N[C@H](C(=O)N[C@@H](Cc1ccc(O)cc1)C(=O)N[C@@H](CCCCN)C(=O)N[C@@H](Cc1ccccc1)C(=O)O)[C@@H](C)O)C(C)C)[C@@H](C)O (HELM PEPTIDE1{[CCCCCCCCCCCCCCCC(=O)[*:2]].T.V.T.Y.K.F}$$$$V2.0) |  |  |  |  |  |  | Activity [8]: 1.6 |
| H-TITYKF-OH | < 10% |  |  |  |  | 151 µM | Ki (Proteasome component C5 [9]): 260 µM |
| CCCCCCCCCCCCCC(=O)N[C@H](C(=O)N[C@H](C(=O)N[C@H](C(=O)N[C@@H](Cc1ccccc1)C(=O)N[C@@H](CC(=O)O)C(=O)N[C@@H](Cc1ccc(O)cc1)C(=O)O)[C@@H](C)O)[C@@H](C)CC)[C@@H](C)O (HELM PEPTIDE1{[CCCCCCCCCCCCCC(=O)[*:2]].T.I.T.F.D.Y}$$$$V2.0) |  |  |  |  | 1.3 |  | Ki [11]: 78 µM; inhibition [12]: < 10% |
| CCCCCCCC(=O)N[C@H](C(=O)N[C@H](C(=O)N[C@H](C(=O)N[C@@H](Cc1ccc(O)cc1)C(=O)N[C@@H](CCCCN)C(=O)N[C@@H](Cc1ccccc1)C(=O)O)[C@@H](C)O)C(C)C)[C@@H](C)O (HELM PEPTIDE1{[CCCCCCCC(=O)[*:2]].T.V.T.Y.K.F}$$$$V2.0) |  |  |  | 1.2 | 1.3 | 20 µM |  |
